This is an account of results in patent US20260365647A1, “AKT1 MODULATORS” (Alterome Therapeutics, Inc., priority 2022, published 2026).

For orientation: pIC50 means −log10 of the IC50, conventionally taken in molar units.

Each structure is given as a SMILES string. pIC50: −log10 of the molar value.

For the assay, the target named is T1, AKT1-E17K (Homo sapiens, UniProt P31749, E17K).
T1 construct: host or cells: HEK-293 (ATCC CRL-1573)
T1 sequence (P31749 whole entry E17K): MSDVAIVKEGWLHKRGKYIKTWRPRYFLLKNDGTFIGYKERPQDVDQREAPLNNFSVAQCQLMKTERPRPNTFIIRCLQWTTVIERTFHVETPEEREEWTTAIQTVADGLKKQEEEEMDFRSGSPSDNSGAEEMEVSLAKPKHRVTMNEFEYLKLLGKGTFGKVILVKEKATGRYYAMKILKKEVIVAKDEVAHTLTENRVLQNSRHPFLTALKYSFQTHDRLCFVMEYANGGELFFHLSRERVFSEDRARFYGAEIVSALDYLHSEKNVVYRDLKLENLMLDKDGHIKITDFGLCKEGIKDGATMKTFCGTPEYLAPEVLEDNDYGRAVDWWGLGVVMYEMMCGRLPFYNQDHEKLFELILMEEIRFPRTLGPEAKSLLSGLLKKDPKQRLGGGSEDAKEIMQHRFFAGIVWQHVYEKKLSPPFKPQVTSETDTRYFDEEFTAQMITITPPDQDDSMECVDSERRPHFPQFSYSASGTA
In words: NanoBRET Target Engagement (TE) Assay. It counts as cell-based. The source says: The NanoBRET™ Target Engagement (TE) Intracellular Kinase Assays are based on the NanoBRET™ System (Promega Corporation), an energy transfer technique designed to measure molecular proximity in living cells. The NanoBRET™ TE Assays measure the apparent affinity of test compounds by competitive displacement of the NanoBRET™ tracer compound, which is a cell permeable molecule engineered to be reversibly bound to a NanoLuc® luciferase-kinase fusion expressed in cells. For compound screening, when a test compound binds to the selected kinase, the BRET signal is attenuated. […] All cells were evaluated for viability prior to transfection and optimization of the transfection was done prior to experimentation. […] Following transfection, cells were washed and resuspended in Opti-MEM. NanoBRET assays were performed in white, 384-well plates (Corning) at a density of […]. All example compounds were prepared as concentrated stock solutions in DMSO (Sigma-Aldrich). Compounds are dissolved in DMSO to make 10 mM stock solution. […] A Labcyte ECHO 550 compound dispenser was used to facilitate compound transfer directly to cells. Cells were equilibrated for 2 hr with energy transfer probes and example compound prior to BRET measurements. […] For target engagement analysis, the energy transfer probes were added to the cells at concentrations optimized for the target in question (AKT E17K). Following compound incubation, NanoBRET NanoGlo Substrate (Promega Cat #N157D) and Extracellular Nanoluc Inhibitor (Promega Cat #N235C) was added according to the manufacturer's recommended protocol, and luminescence was measured on Envision Reader (Perkin Elmer) Multimode Luminometer equipped with 450 nmBPfilter (donor) and 600 nmLPfilter (acceptor), using 0.5 s integration time. Milli-BRET units (mBU) are calculated by multiplying the raw BRET values by 1000. Apparent tracer affinity values (EC50) were determined using the sigmoidal dose-response (variable slope). Competitive displacement data were then plotted and data were fit to determine the EC50 value for each example compound.
A general note: In BRET a luciferase serves as donor, and the signal depends on an acceptor being close.
Turning to `N#Cc1cccc(-c2ccc3nc(-c4cccnc4N)n(-c4ccc(CN5CCN(C(=O)c6ccc(O)c(C=O)c6)CC5)cc4)c3n2)c1` [Example 34, 3-(2-(2-Aminopyridin-3-yl)-3-(4-((4-(3-formyl-4-hydroxybenzoyl)piperazin-1-yl)methyl)phenyl)-3H-imidazo[4,5-b]pyridin-5-yl)benzonitrile], the pIC50 was 6.22 to 7.22.
For `CN(c1ccc(C=O)c(O)c1)C1CCN(Cc2ccc(-n3c(-c4cccnc4N)nc4ccc(-c5ccccc5)nc43)cc2)CC1` [Example 57, 4-((1-(4-(2-(2-Aminopyridin-3-yl)-5-phenyl-3H-imidazo[4,5-b]pyridin-3-yl)benzyl)piperidin-4-yl)(methyl)amino)-2-hydroxybenzaldehyde], the pIC50 is 6.22 to 7.22.
As for `Nc1ncccc1-c1nc2ccc(-c3ccccc3)nc2n1-c1ccc(CN2CCC3(CCCN(C(=O)c4ccc(O)c(C=O)c4)C3)C2)cc1` (stereo not shown) [Example 86, 5-(2-(4-(2-(2-Aminopyridin-3-yl)-5-phenyl-3H-imidazo[4,5-b]pyridin-3-yl)benzyl)-2,7-diazaspiro[4.5]decane-7-carbonyl)-2-hydroxybenzaldehyde], the figure is 6.22 to 7.22; as for `C[C@H]1CN(Cc2ccc(-n3c(-c4cccnc4N)nc4ccc(-c5ccccc5)nc43)cc2)CCN1C(=O)c1ccc(C=O)c(O)c1` [Example 106, (S)-4-(4-(4-(2-(2-Aminopyridin-3-yl)-5-phenyl-3H-imidazo[4,5-b]pyridin-3-yl)benzyl)-2-methylpiperazine-1-carbonyl)-2-hydroxybenzaldehyde], < 6.22.
`C=Cc1cc(C=O)c(O)cc1N1CCN(Cc2ccc(-n3c(-c4cccnc4N)nc4ccc(-c5ccccc5)nc43)cc2)CC1` [Example 28, 4-(4-(4-(2-(2-Aminopyridin-3-yl)-5-phenyl-3H-imidazo[4,5-b]pyridin-3-yl)benzyl)piperazin-1-yl)-2-hydroxy-5-vinylbenzaldehyde] had a pIC50 of 6.22 to 7.22.
As to `N#Cc1ccccc1-c1ccc2nc(-c3cccnc3N)n(-c3ccc(CN4CCN(C(=O)c5ccc(C=O)c(O)c5)CC4)cc3)c2n1` [Example 37, 2-(2-(2-Aminopyridin-3-yl)-3-(4-((4-(4-formyl-3-hydroxybenzoyl)piperazin-1-yl)methyl)phenyl)-3H-imidazo[4,5-b]pyridin-5-yl)benzonitrile], the pIC50 is 6.22 to 7.22.
As for `Nc1ncccc1-c1nc2ccc(-c3ccccc3)nc2n1-c1ccc(CN2CCN(c3cccc(C=O)c3O)CC2)cc1` [Example 23, 3-(4-(4-(2-(2-aminopyridin-3-yl)-5-phenyl-3H-imidazo[4,5-b]pyridin-3-yl)benzyl)piperazin-1-yl)-2-hydroxybenzaldehyde], the figure is 6.22 to 7.22; as for `Nc1ncccc1-c1nc2ccc(-c3ccccc3)nc2n1-c1ccc(CN2CCC3(CC2)CCN(C(=O)c2ccc(C=O)c(O)c2)CC3)cc1` [Example 152, 4-(9-(4-(2-(2-aminopyridin-3-yl)-5-phenyl-3H-imidazo[4,5-b]pyridin-3-yl)benzyl)-3,9-diazaspiro[5.5]undecane-3-carbonyl)-2-hydroxybenzaldehyde], 6.22 to 7.22.
In the case of `Nc1ncccc1-c1nc2ccc(N3CCOCC3)nc2n1-c1ccc(CN2CCN(C(=O)c3ccc(C=O)c(O)c3)CC2)cc1` [Example 33, 4-(4-(4-(2-(2-Aminopyridin-3-yl)-5-morpholino-3H-imidazo[4,5-b]pyridin-3-yl)benzyl)piperazine-1-carbonyl)-2-hydroxybenzaldehyde], the negative logarithm of the IC50 (pIC50) is < 6.22.
As for `Nc1ncccc1-c1nc2ccc(-c3ccccc3)nc2n1-c1ccc(CN2CCC(Nc3cccc(C=O)c3O)CC2)cc1` [Example 50, 3-((I-(4-(2-(2-Aminopyridin-3-yl)-5-phenyl-3H-imidazo[4,5-b]pyridin-3-yl)benzyl)piperidin-4-yl)amino)-2-hydroxybenzaldehyde], the figure is 7.22 to 7.82; as for `Nc1ncccc1-c1nc2ccc(-c3ccccc3)nc2n1-c1ccc(CN2CCC3(CC2)CN(C(=O)c2ccc(O)c(C=O)c2)C3)cc1` [Example 67, 5-(7-(4-(2-(2-Aminopyridin-3-yl)-5-phenyl-3H-imidazo[4,5-b]pyridin-3-yl)benzyl)-2,7-diazaspiro[3.5]nonane-2-carbonyl)-2-hydroxybenzaldehyde], 6.22 to 7.22; as for `N#Cc1ccc(-c2ccc3nc(-c4cccnc4N)n(-c4ccc(CN5CCN(C(=O)c6ccc(O)c(C=O)c6)CC5)cc4)c3n2)cc1` [Example 38, 4-(2-(2-Aminopyridin-3-yl)-3-(4-((4-(3-formyl-4-hydroxybenzoyl)piperazin-1-yl)methyl)phenyl)-3H-imidazo[4,5-b]pyridin-5-yl)benzonitrile], 6.22 to 7.22.
For `Nc1ncccc1-c1nc2ccc(-c3ccccc3)nc2n1-c1ccc(CN2C[C@@H]3CN(C(=O)c4ccc(O)c(C=O)c4)C[C@@H]3C2)cc1` [Example 131, 5-((3aR,6aS)-5-(4-(2-(2-Aminopyridin-3-yl)-5-phenyl-3H-imidazo[4,5-b]pyridin-3-yl)benzyl)octahydropyrrolo[3,4-c]pyrrole-2-carbonyl)-2-hydroxybenzaldehyde], the pIC50 was 6.22 to 7.22.
`Nc1ncccc1-c1nc2ccc(N3CCOCC3)nc2n1-c1ccc(CN2CCC(NC(=O)c3ccc(O)c(C=O)c3)CC2)cc1` [Example 52, N-(1-(4-(2-(2-Aminopyridin-3-yl)-5-morpholino-3H-imidazo[4,5-b]pyridin-3-yl)benzyl)piperidin-4-yl)-3-formyl-4-hydroxybenzamide]: the pIC50 is 7.22 to 7.82.
In turn, `Nc1ncccc1-c1nc2ccc(-c3ccccc3)nc2n1-c1ccc(CN2CCC[C@@H](NC(=O)c3ccc(O)c(C=O)c3)C2)cc1` [Example 58, (R)—N-(1-(4-(2-(2-Aminopyridin-3-yl)-5-phenyl-3H-imidazo[4,5-b]pyridin-3-yl)benzyl)piperidin-3-yl)-3-formyl-4-hydroxybenzamide] showed a pIC50 of 7.22 to 7.82.
In the case of `CCN(C(=O)c1ccc(O)c(C=O)c1)C1CCN(Cc2ccc(-n3c(-c4cccnc4N)nc4ccc(-c5ccccc5)nc43)cc2)CC1` [Example 13, N-(1-(4-(2-(2-Aminopyridin-3-yl)-5-phenyl-3H-imidazo[4,5-b]pyridin-3-yl)benzyl)piperidin-4-yl)-N-ethyl-3-formyl-4-hydroxybenzamide], the pIC50 is 6.22 to 7.22.
The compound `C[C@H]1CN(Cc2ccc(-n3c(-c4cccnc4N)nc4ccc(-c5ccccc5)nc43)cc2)CCN1c1ccc(C=O)c(O)c1` [Example 107, (S)-4-(4-(4-(2-(2-aminopyridin-3-yl)-5-phenyl-3H-imidazo[4,5-b]pyridin-3-yl)benzyl)-2-methylpiperazin-1-yl)-2-hydroxybenzaldehyde] had a negative logarithm of the IC50 (pIC50) of 6.22 to 7.22.
Under `Nc1ncccc1-c1nc2ccc(-c3ccccc3)nc2n1-c1ccc(CN2CCCC(NC(=O)c3ccc(C=O)c(O)c3)CC2)cc1` (stereo not shown) [Example 116, N-(1-(4-(2-(2-aminopyridin-3-yl)-5-phenyl-3H-imidazo[4,5-b]pyridin-3-yl)benzyl)azepan-4-yl)-4-formyl-3-hydroxybenzamide] stands 6.22 to 7.22; under `C[C@@H]1CN(Cc2ccc(-n3c(-c4cccnc4N)nc4ccc(-c5ccccc5)nc43)cc2)CCN1c1ccc(C=O)c(O)c1` [Example 104, (R)-4-(4-(4-(2-(2-Aminopyridin-3-yl)-5-phenyl-3H-imidazo[4,5-b]pyridin-3-yl)benzyl)-2-methylpiperazin-1-yl)-2-hydroxybenzaldehyde], 6.22 to 7.22.
